The values that follow come from patent publication US20090269409A1, “PHARMACEUTICAL COMPOSITIONS COMPRISING ESZOPICLONE” (priority 2008, published 2009).

Converted amounts (≈) assume the structure as drawn. Read-outs that look alike come from different tables or passages of the source.

In general, solubility refers to how much of the substance goes into solution per volume. High values mean a readily soluble substance, low ones a poorly soluble substance.

Data set [1] is described as follows: Saturated solubility of eszopiclone in various solvents (shake flask, HPLC). The conditions noted are these: thermodynamic from solid, room temperature. It counts as physicochemical. Here is the method: 1) 100 mL of the solvent was placed into a 250 mL volumetric flask.
2) 10 mg of eszopiclone was added to the flask.
3) The flask contents were mixed for 24 hours using a rotary shaker to dissolve the eszopiclone completely.
4) Eszopiclone was added at room temperature to the clear solution of 3) in small amounts (up to about 100 mg) until undissolved eszopiclone was noted after shaking.
5) The flask was subjected to shaking for an additional 24 hours.
6) Presence of insoluble eszopiclone was checked and the pH of the solution was recorded.
7) A portion of step 6) solution was subjected to centrifugation until a clear solution was obtained, and/or was filtered through an ASTM #40 mesh sieve.
8) Content of the drug substance was determined using HPLC, comparing with a standard solution prepared preferably in the same solvent.
9) Amount of the drug substance dissolved was calculated as a percentage (weight/volume): […]
The actual amount of drug substance dissolved in mg is:
The solubility of the drug substance in mg/ml in the solvent medium tested is: S=m÷100.
Saturated solubility was determined in solvents as described below.

The conditions of data set [2]: cited from earlier work.
Data set [3] is described as follows: Excipient compatibility and stability study of eszopiclone/excipient mixtures (impurity analysis before and after storage). It counts as physicochemical. The method, then:
1) Eszopiclone and excipient in the stated ratios were mixed well and sifted through an ASTM #40 mesh sieve.
2) The mixture was placed into 20 mL amber glass vials and stored under conditions of 40° C. and 75% relative humidity (RH), or at 50° C., for 1 month. Impurity analyses were performed before and after storage, and values in the table below are percentages of the initial eszopiclone content.

The nature of data set [4]: Observed susceptibility of eszopiclone to degradation. The conditions noted are these: with significant increase in the 5-chloro-2-aminopyridine content. It counts as physicochemical.
Where [5] appears, read: 1 Month, 40° C./75% RH, amber glass vials.
Where [6] appears, read: 1 Month, 50° C., amber glass vials.

As to `CN1CCN(C(=O)O[C@H]2c3nccnc3C(=O)N2c2ccc(Cl)cn2)CC1` [Eszopiclone, (+)-(5S)-6-(5-chloropyridin-2-yl)-7-oxo-6,7-dihydro-[3,4-b]pyrazin-5-yl-4-methylpiperazine-1-carboxylate], the solubility at 24 h in data set [1] (aqueous buffer, Acetate buffer (pH 4.5)) is 11600 µg/mL (≈ 29.9 mM); in data set [1] (aqueous buffer, Phosphate buffer (pH 6.8)), 680 µg/mL (≈ 1.75 mM); in data set [1] (aqueous buffer, Phosphate buffer (pH 7.5)), 330 µg/mL (≈ 0.849 mM); in data set [1] (aqueous with cosolvent or surfactant or cyclodextrin, 0.5% Sodium lauryl sulphate in water), 1830 µg/mL (≈ 4.71 mM); in data set [1] (simulated gastric fluid, 0.01N HCl) it was 4180 µg/mL (≈ 10.8 mM); in data set [1] (simulated gastric fluid, 0.1N Hydrochloric acid (pH 1.2)) it was 39100 µg/mL (≈ 101 mM). The solubility at 24 h was 23000 µg/mL (≈ 59.2 mM) in data set [1] (simulated gastric fluid, Acid buffer (pH 1), potassium chloride/HCl); 8180 µg/mL (≈ 21 mM) in data set [1] (Simulated gastric fluid (pH 1.2)); 300 µg/mL (≈ 0.772 mM) in data set [1] (Water). Besides, the “Solubility (descriptive)” value in data set [2] (in ethanol) is recorded as “slightly soluble”; in data set [2] (in phosphate buffer of pH 3.2), “soluble”; in data set [2] (in water), “very slightly soluble”. For the same compound, the “Imp (5-chloro-2-aminopyridine)” value is reported as 0.47 percentages of the initial eszopiclone content in data set [3] (setting [5]), 0.35 percentages of the initial eszopiclone content in data set [3] (setting [6]) and 0.01 percentages of the initial eszopiclone content in data set [3] (Initial). The “T.I. (Total impurities)” value in data set [3] (setting [5]) is listed as 0.33 percentages of the initial eszopiclone content; in data set [3] (setting [6]) it was 0.5 percentages of the initial eszopiclone content; in data set [3] (Initial) it was 0.02 percentages of the initial eszopiclone content. Moreover, in data set [4], the “Susceptibility to oxidative degradation (including by atmospheric oxygen) and acid hydrolysis” value was “highly susceptible”.
